Test results reported in patent US20250352520A1, “USE OF DEXPRAMIPEXOLE FOR THE TREATMENT OF EOSINOPHILIC COPD” (Areteia Therapeutics, Inc., priority 2024, published 2025).

Details: Week 12; <50% AEC reduction at Week 16

CCCN[C@@H]1CCc2nc(N)sc2C1 [Dexpramipexole, (6R)-2-amino-4,5,6,7-tetrahydro-6-(propylamino)benzothiazole]
Pre-BD FEF25-75 % change from baseline, Max: 47% | Pre-BD FEF25-75 % change from baseline, Mean ± SD: 23.9 ± 28.49% | Pre-BD FEF25-75 % change from baseline, Median: 30.3% | Pre-BD FEF25-75 % change from baseline, Min: −12% | Pre-BD FEF25-75 % change from baseline, Q1: 1% | Pre-BD FEF25-75 % change from baseline, Q3: 47% | Pre-BD FEF25-75 Observed, Max: 2050 mL/s | Pre-BD FEF25-75 Observed, Mean ± SD: 857.5 ± 805.29 mL/s | Pre-BD FEF25-75 Observed, Median: 515.0 mL/s | Pre-BD FEF25-75 Observed, Min: 350 mL/s | Pre-BD FEF25-75 Observed, Q1: 370 mL/s | Pre-BD FEF25-75 Observed, Q3: 1345 mL/s | Pre-BD FEF25-75 change from baseline, Max: 660 mL/s | Pre-BD FEF25-75 change from baseline, Mean ± SD: 182.5 ± 329.18 mL/s | Pre-BD FEF25-75 change from baseline, Median: 80.0 mL/s | Pre-BD FEF25-75 change from baseline, Min: -90 mL/s | Pre-BD FEF25-75 change from baseline, Q1: -20 mL/s | Pre-BD FEF25-75 change from baseline, Q3: 385 mL/s | Pre-BD FEV1 % change from baseline, Max: 41% | Pre-BD FEV1 % change from baseline, Mean ± SD: 10.1 ± 21.78% | Pre-BD FEV1 % change from baseline, Median: 4.2% | Pre-BD FEV1 % change from baseline, Min: −9% | Pre-BD FEV1 % change from baseline, Q1: −3% | Pre-BD FEV1 % change from baseline, Q3: 23% | Pre-BD FEV1 Observed, Max: 2940 mL | Pre-BD FEV1 Observed, Mean ± SD: 1672.5 ± 886.84 mL | Pre-BD FEV1 Observed, Median: 1440.0 mL | Pre-BD FEV1 Observed, Min: 870 mL | Pre-BD FEV1 Observed, Q1: 1145 mL | Pre-BD FEV1 Observed, Q3: 2200 mL | Pre-BD FEV1 change from baseline, Max: 860 mL | Pre-BD FEV1 change from baseline, Mean ± SD: 200.0 ± 449.52 mL | Pre-BD FEV1 change from baseline, Median: 45.0 mL | Pre-BD FEV1 change from baseline, Min: -150 mL | Pre-BD FEV1 change from baseline, Q1: -55 mL | Pre-BD FEV1 change from baseline, Q3: 455 mL | Pre-BD FVC % change from baseline, Max: 10% | Pre-BD FVC % change from baseline, Mean ± SD: −3.1 ± 11.75% | Pre-BD FVC % change from baseline, Median: −2.9% | Pre-BD FVC % change from baseline, Min: −17% | Pre-BD FVC % change from baseline, Q1: −12% | Pre-BD FVC % change from baseline, Q3: 6% | Pre-BD FVC Observed, Max: 3990 mL | Pre-BD FVC Observed, Mean ± SD: 2942.5 ± 825.44 mL | Pre-BD FVC Observed, Median: 2830.0 mL | Pre-BD FVC Observed, Min: 2120 mL | Pre-BD FVC Observed, Q1: 2300 mL | Pre-BD FVC Observed, Q3: 3585 mL | Pre-BD FVC change from baseline, Max: 370 mL | Pre-BD FVC change from baseline, Mean ± SD: -52.5 ± 345.68 mL | Pre-BD FVC change from baseline, Median: -75.0 mL | Pre-BD FVC change from baseline, Min: -430 mL | Pre-BD FVC change from baseline, Q1: -320 mL | Pre-BD FVC change from baseline, Q3: 215 mL | Pre-BD Peak Flow % change from baseline, Max: 478% | Pre-BD Peak Flow % change from baseline, Mean ± SD: 121.7 ± 237.65% | Pre-BD Peak Flow % change from baseline, Median: 12.2% | Pre-BD Peak Flow % change from baseline, Min: −15% | Pre-BD Peak Flow % change from baseline, Q1: −5% | Pre-BD Peak Flow % change from baseline, Q3: 249% | Pre-BD Peak Flow Observed, Max: 246 L/min | Pre-BD Peak Flow Observed, Mean ± SD: 204.8 ± 42.39 L/min | Pre-BD Peak Flow Observed, Median: 210.5 L/min | Pre-BD Peak Flow Observed, Min: 152 L/min | Pre-BD Peak Flow Observed, Q1: 171 L/min | Pre-BD Peak Flow Observed, Q3: 239 L/min | Pre-BD Peak Flow change from baseline, Max: 191 L/min | Pre-BD Peak Flow change from baseline, Mean ± SD: 48.3 ± 98.44 L/min | Pre-BD Peak Flow change from baseline, Median: 18.0 L/min | Pre-BD Peak Flow change from baseline, Min: -34 L/min | Pre-BD Peak Flow change from baseline, Q1: -12 L/min | Pre-BD Peak Flow change from baseline, Q3: 108 L/min
